Laboratory results: patent US11267800B2, “Cyclohexyl acid triazole azines as LPA antagonists” (BRISTOL-MYERS SQUIBB COMPANY, priority 2017, dated 2022)

These compounds were tested against T1, human LPA1 (Homo sapiens, UniProt Q92633) (assay: LPA1 functional antagonist assay (calcium flux)). Settings: CHO cells overexpressing human LPA1; inhibition of calcium flux induced by 10 nM LPA; read-out: hLPA1 IC50.
T1 construct: expressed in transfected cells; host or cells: Chinese hamster ovary (CHO) cells
Assay type: cell-based
Experimental: The effectiveness of compounds of the present invention as LPA1 inhibitors can be determined in an LPA1 functional antagonist assay as follows:
Chinese hamster ovary cells overexpressing human LPA1 were plated overnight (15,000 cells/well) in poly-D-lysine coated 384-well microplates (Greiner bio-one, Cat #781946) in DMEM/F12 medium (Gibco, Cat #11039). Following overnight culture, cells were loaded with calcium indicator dye (AAT Bioquest Inc, Cat #34601) for 30 minutes at 37° C. The cells were then equilibrated to room temperature for 30 minutes before the assay. Test compounds solubilized in DMSO were transferred to 384 well non-binding surface plates (Corning, Cat #3575) using the Labcyte Echo acoustic dispense and diluted with assay buffer [1×HBSS with calcium/magnesium (Gibco Cat #14025-092), 20 mM HEPES (Gibco Cat #15630-080) and 0.1% fatty acid free BSA (Sigma Cat #A9205)] to a final concentration of 0.5% DMSO. Diluted compounds were added to the cells by FDSS6000 (Hamamatsu) at final concentrations ranging from 0.08 nM to 5 μM. and were then incubated for 20 min at room temperature at which time LPA (Avanti Polar Lipids Cat #857130C) was added at final concentrations of 10 nM to stimulate the cells. The compound IC50 value was defined as the concentration of test compound which inhibited 50% of the calcium flux induced by LPA alone. IC50 values were determined by fitting data to a 4-parameter logistic equation (GraphPad Prism, San Diego Calif.).

T1 sequence (Q92633 whole entry): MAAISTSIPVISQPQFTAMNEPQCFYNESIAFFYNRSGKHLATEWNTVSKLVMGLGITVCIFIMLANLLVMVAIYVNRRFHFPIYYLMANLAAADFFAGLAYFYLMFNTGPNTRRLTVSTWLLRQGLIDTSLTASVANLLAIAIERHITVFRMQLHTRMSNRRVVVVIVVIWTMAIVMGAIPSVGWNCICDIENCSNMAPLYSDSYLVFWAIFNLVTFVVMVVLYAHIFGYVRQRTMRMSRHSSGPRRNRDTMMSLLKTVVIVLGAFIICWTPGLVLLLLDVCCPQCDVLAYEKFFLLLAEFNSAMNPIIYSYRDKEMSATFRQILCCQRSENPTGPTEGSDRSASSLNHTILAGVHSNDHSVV

Compound	IC50 [nM]
Cn1nnc(-c2ccc(O[C@H]3CCC[C@H](C(=O)O)C3)cn2)c1CNc1nccc(-n2cccn2)n1 [Example 34]	1130
CCOc1cnnc(OCc2c(-c3ccc(O[C@H]4CCC[C@H](C(=O)O)C4)c(C)n3)nnn2C)c1 [Example 284]	147
Cc1nc(-c2nnn(C)c2COc2cc(N3CCCC3)ncn2)ccc1O[C@H]1CCC[C@H](C(=O)O)C1 [Example 298]	121
CCc1cc(OCc2c(-c3ccc(O[C@H]4CCC[C@H](C(=O)O)C4)c(C)n3)nnn2C)ncn1 [Example 256, (1S,3S)-3-((6-(5-(((6-ethylpyrimidin-4-yl)oxy)methyl)-1-methyl-1H-1,2,3-triazol-4-yl)-2-methylpyridin-3-yl)oxy)cyclohexane-1-carboxylic acid]	22
CSc1cc(OCc2c(-c3ccc(O[C@H]4CCC[C@H](C(=O)O)C4)c(C)n3)nnn2C)ncn1 [Example 363]	22
Cc1nc(-c2nnn(C)c2CNc2ncc(F)c(C(C)C)n2)ccc1O[C@H]1CCC[C@H](C(=O)O)C1 [Example 157]	40
Cc1nc(-c2nnn(C)c2CNc2nccc(OCC3(C)CC3)n2)ccc1O[C@H]1CCC[C@H](C(=O)O)C1 [Example 335]	18
Cc1nc(-c2nnn(C)c2CNc2nc(OC(C)C)cc(OC(C)C)n2)ccc1O[C@H]1CCC[C@H](C(=O)O)C1 [Example 175]	384
Cc1nc(-c2nnn(C)c2CNc2nccc(OCC3CC3)n2)ccc1O[C@H]1CCC[C@H](C(=O)O)C1 [Example 334]	19
Cc1nc(-c2nnn(C)c2CNc2nccc(COC(C)C)n2)ccc1O[C@H]1CCC[C@H](C(=O)O)C1 [Example 319]	57
Cn1nnc(-c2ccc(O[C@H]3CCC[C@H](C(=O)O)C3)cn2)c1CNc1nccc(OC2CC2)n1 [Example 139]	42
Cc1nc(-c2nnn(C)c2Nc2cc(C3CC3)ccn2)ccc1O[C@H]1CCC[C@H](C(=O)O)C1 [Example 234, (1S,3S)-3-((6-(5-((4-cyclopropyl-pyridin-2-yl)amino)-1-methyl-1H-1,2,3-triazol-4-yl)-2-methylpyridin-3-yl)oxy)cyclohexane-1-carboxylic acid]	88
Cc1nc(-c2nnn(C)c2Nc2nccc(C(C)C)n2)ccc1O[C@H]1CCC[C@H](C(=O)O)C1 [Example 241, (1S,3S)-3-((6-(5-((4-isopropyl-pyrimidin-2-yl)amino)-1-methyl-1H-1,2,3-triazol-4-yl)-2-methylpyridin-3-yl)oxy)cyclohexane-1-carboxylic acid]	66
Cc1nc(-c2nnn(C)c2CNc2nccc(C3CCC3)n2)ccc1O[C@H]1CCC[C@H](C(=O)O)C1 [Example 10]	11
CCc1nc(-c2nnn(C)c2CNc2nccc(C(C)(C)C)n2)ccc1O[C@H]1CCC[C@H](C(=O)O)C1 [Example 385]	41
Cc1nc(-c2nnn(C)c2CNc2nccc(Oc3ccccc3)n2)ccc1O[C@H]1CCC[C@H](C(=O)O)C1 [Example 15]	8
Cc1nc(-c2nnn(C)c2CNc2nccc(-n3cccn3)n2)ccc1O[C@H]1CCC[C@H](C(=O)O)C1 [Example 326]	99
CCOc1cccc(Nc2c(-c3ccc(O[C@H]4CCC[C@H](C(=O)O)C4)c(C)n3)nnn2C)n1 [Example 240, (1S,3S)-3-((6-(5-((6-ethoxypyridin-2-yl)amino)-1-methyl-1H-1,2,3-triazol-4-yl)-2-methylpyridin-3-yl)oxy) cyclohexane-1-carboxylic acid]	57
Cc1nc(-c2nnn(C)c2CNc2nccc(OCC(C)(C)C)n2)ccc1O[C@H]1CCC[C@H](C(=O)O)C1 [Example 65]	36

Further lines, results first:

IC50 [nM]	Compound
68	CCCCc1ncnc(NCc2c(-c3ccc(O[C@H]4CCC[C@H](C(=O)O)C4)cn3)nnn2C)n1 [Example 222, (1S,3S)-3-((6-(5-(((4-butyl-1,3,5-triazin-2-yl)amino)methyl)-1-methyl-1H-1,2,3-triazol-4-yl)pyridin-3-yl)oxy)cyclohexane-1-carboxylic acid]
565	Cc1nc(-c2nnn(C)c2COc2ccnc(N3CCC3)n2)ccc1O[C@H]1CCC[C@H](C(=O)O)C1 [Example 350]
13	CCOc1cc(OCc2c(-c3ccc(O[C@H]4CCC[C@H](C(=O)O)C4)c(C)n3)nnn2C)ncn1 [Example 273]
106	CCC(C)Cc1ncnc(NCc2c(-c3ccc(O[C@H]4CCC[C@H](C(=O)O)C4)c(C)n3)nnn2C)n1 (stereo partly drawn) [Example 204, (1S,3S)-3-((2-Methyl-6-(1-methyl-5-(((4-(2-methylbutyl)-1,3,5-triazin-2-yl)amino)methyl)-1H-1,2,3-triazol-4-yl)pyridin-3-yl)oxy)cyclohexane-1-carboxylic acid]
1280	Cc1nc(-c2nnn(C)c2CNc2nc(-c3cccs3)nc(-c3cccs3)n2)ccc1O[C@H]1CCC[C@H](C(=O)O)C1 [Example 95]
131	CCOc1ccnc(NCc2c(-c3cnc(O[C@H]4CCC[C@H](C(=O)O)C4)c(C)n3)nnn2C)n1 [Example 259]
42	Cc1nc(-c2nnn(C)c2Nc2nccc(OCC(F)(F)F)n2)ccc1O[C@H]1CCC[C@H](C(=O)O)C1 [Example 396]
189	Cc1nc(-c2nnn(C)c2CNc2ccnc(OCC(C)(C)F)n2)ccc1O[C@H]1CCC[C@H](C(=O)O)C1 [Example 55]
33	Cc1nc(-c2nnn(C)c2COc2nccc(-c3ccccc3)n2)ccc1O[C@H]1CCC[C@H](C(=O)O)C1 [Example 330, (1S,3S)-3-((2-Methyl-6-(1-methyl-5-(((4-phenylpyrimidin-2-yl)oxy)methyl)-1H-1,2,3-triazol-4-yl)pyridin-3-yl)oxy)cyclohexane-1-carboxylic acid]
140	COc1cc(OCc2c(-c3ccc(O[C@H]4CCC[C@H](C(=O)O)C4)c(C)n3)nnn2C)nc(OC)n1 [Example 279]
41	Cc1nc(-c2nnn(C)c2COc2nccc(OC(C)C)n2)ccc1O[C@H]1CCC[C@H](C(=O)O)C1 (single isomer, unassigned) [Example 250]
129	Cc1nc(-c2nnn(C)c2CNc2ncc(C#N)c(C3CCC3)n2)ccc1O[C@H]1CCC[C@H](C(=O)O)C1 [Example 168]
70	CCC1(c2ccnc(NCc3c(-c4ccc(O[C@H]5CCC[C@H](C(=O)O)C5)c(C)n4)nnn3C)n2)CC1 [Example 148]
56	Cc1nc(-c2nnn(C)c2CNc2nccc(-c3ccccc3)n2)cnc1O[C@H]1CCC[C@H](C(=O)O)C1 [Example 137]
72	Cc1nc(-c2nnn(C)c2COc2nccc(-c3ccccn3)n2)ccc1O[C@H]1CCC[C@H](C(=O)O)C1 [Example 317]
86	Cc1nc(-c2nnn(C)c2CNc2nccc(NCCc3ccccc3)n2)ccc1O[C@H]1CCC[C@H](C(=O)O)C1 [Example 63]
13	[2H]C([2H])([2H])C([2H])([2H])Oc1ccnc(NCc2c(-c3ccc(O[C@H]4CCC[C@H](C(=O)O)C4)c(C)n3)nnn2C)n1 [Example 71]
53	Cc1nc(-c2nnn(C)c2CNc2ncnc(C3(C)CC3)n2)ccc1O[C@H]1CCC[C@H](C(=O)O)C1 [Example 207, (1S,3S)-3-((2-Methyl-6-(1-methyl-5-(((4-(1-methylcyclopropyl)-1,3,5-triazin-2-yl)amino)methyl)-1H-1,2,3-triazol-4-yl)pyridin-3-yl)oxy) cyclohexane-1-carboxylic acid]
277	Cn1nnc(-c2ccc(O[C@H]3CCC[C@H](C(=O)O)C3)cn2)c1CNc1nccc(-c2cccnc2)n1 [Example 32]
